Measurements from PubChem BioAssay AID2060484 (Molecular Pharmacology Branch, DTP, NCI, 2025).
Where “and” joins values, the source holds several entries; their conditions need not be identical. Identical values can stand only once.

Tested on: SUM149PT spheroids with HUVEC/MSC, viability
Assay: Anticancer human tumor SUM149PT cell line growth inhibition [GQUAD];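 also: spheroids exposed to drugs for seven days before readout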;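 as to viability, T/C: percent viability relative to DMSO vehicle control taken as 100%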
Conditions: for viability, T/C: stronger effect = lower value; active = viability on the fitted dose curve at most 10% of control; inactive = the rest
Excerpt: DNA G-quadruplex Stabilizer Agents in Combinations in Complex Spheroids
A high-throughput screen of multi-cell type tumor spheroids was designed to identify active combinations of DNA G-quadruplex stabilizer agents and targeted small molecules. Complex spheroids include a stromal component modeled by human endothelial cells (HUVEC) and fibroblasts modeled by human mesenchymal stem cells (MSCs). The concentration ranges selected for each drug and investigational agent were based upon clinically achievable concentrations if the clinical Cmax of the agent was known.
Compounds. The drugs and investigational agents: pidnarulex (CX-5461; NSC782164), APTO-253 (NSC789042), BRACO-19 (NSC847499), peposertib (NSC802822), ceralasertib (NSC780249), elimusertib (NSC800525), camonsertib (NSC841442), AZD-1390 (NSC803789), olaparib (NSC753686), talazoparib (NSC767125), ART-558 (NSC835418), sotorasib (NSC818433), MRTX-1133 (NSC836407), SN-38 (NSC673596), topotecan (NSC609699), etoposide (NSC141540), doxorubicin (NSC123127), gemcitabine (NSC613327), 5-fluorouracil (NSC19893), paclitaxel (NSC125973), vemurafenib (NSC761431), panobinostat (NSC761190), R-306465 (JNJ-16241199; NSC773264), adavosertib (NSC754352), TP-3654 (NSC805149), carboplatin (NSC241240), KSQ-4279 (NSC840948), and staurosporine (NSC755774) were obtained from the National Cancer Institute (NCI) Developmental Therapeutics Program Chemical Repository (34). The FDA-approved anticancer drug set is available from the NCI Developmental Therapeutics Program. […] The stock solutions were prepared in dimethyl sulfoxide (DMSO, Sigma-Aldrich, St. Louis, MO, cat. D2650) at 800-fold the tested concentration and stored at -70 degrees C prior to their use. All drugs and investigational agents were tested over a range starting from a high concentration at or near the clinical Cmax and decreasing in half-log increments. If the clinical Cmax for an agent had not been determined, the highest concentration tested was 10 microM.
2.3 Cell Culture. All cells were maintained in an incubator at 37 degrees C and 5% CO2 with 95% humidity. The PDC lines were cultured according to standard operating procedures established by the NCI PDMR. All PDCs were thawed and cultured in Matrigel-coated flasks prepared with a working solution of 1X Ham's F-12 nutrient mix, without supplementation (Invitrogen, cat. 11765054), 100 U/mL penicillin-streptomycin (Invitrogen, cat. 15140122), and 2.5% Matrigel (Corning Inc., cat. 354248) for the first three passages. The 857933-349-R-J2-PDC line was cultured in 6C/Colon 1B media, which includes advanced DMEM/F-12 (Thermo Fisher Scientific, cat. 12634028), 10 mM HEPES (Thermo Fisher Scientific, cat. 15630080), 1X GlutaMAX supplement (Thermo Fisher Scientific, cat. 35050061), 0.1 mg/mL primocin (InvivoGen, cat. ant-pm-2), 10% defined fetal bovine serum, heat inactivated (HyClone Laboratories Inc., cat. SH30070.03HI), 50% L-WRN conditioned media (ATCC, cat. CRL-3276), 1.25 mM N-Acetyl-L-cysteine (Sigma-Aldrich, cat. A9165), 10 mM nicotinamide (Sigma-Aldrich, cat. N0636), 1X B-27 supplement (Thermo Fisher Scientific, cat. 17504044), 1X N-2 supplement (Thermo Fisher Scientific, cat. 17502048), 10 microM Y-27632 dihydrochloride (Tocris Bioscience, cat. 1254), and 50 ng/mL human EGF recombinant protein (Thermo Fisher Scientific, cat. PHG0311). The 485176-168-R4-J1-PDC line was cultured in Panc media, which includes all 6C/Colon 1B media components plus 100 ng/mL human FGF-10 (Thermo Fisher Scientific, cat. 100-26), 500 nM SB-431542 (Selleckchem, cat. S1067), and gastrin (Tocris, cat. 3006).
[…]

[1] = curve of first compound, second compound 0.0316 µM
[2] = curve of first compound, second compound 0.1 µM
[3] = curve of first compound, second compound 0.316 µM
[4] = curve of first compound, second compound 1 µM
[5] = curve of first compound, second compound 3.16 µM
[6] = curve of first compound, second compound 10 µM
[7] = second compound 0.0316 µM, first compound 0.0316 µM
[8] = second compound 0.0316 µM, first compound 0.1 µM
[9] = second compound 0.0316 µM, first compound 0.316 µM
[10] = second compound 0.0316 µM, first compound 1 µM
[11] = second compound 0.0316 µM, first compound 3.16 µM
[12] = second compound 0.0316 µM, first compound 10 µM
[13] = second compound 0.1 µM, first compound 0.0316 µM
[14] = second compound 0.1 µM, first compound 0.1 µM
[15] = second compound 0.1 µM, first compound 0.316 µM
[16] = second compound 0.1 µM, first compound 1 µM
[17] = second compound 0.1 µM, first compound 3.16 µM
[18] = second compound 0.1 µM, first compound 10 µM
[19] = second compound 0.316 µM, first compound 0.0316 µM
[20] = second compound 0.316 µM, first compound 0.1 µM
[21] = second compound 0.316 µM, first compound 0.316 µM
[22] = second compound 0.316 µM, first compound 1 µM
[23] = second compound 0.316 µM, first compound 3.16 µM
[24] = second compound 0.316 µM, first compound 10 µM
[25] = second compound 1 µM, first compound 0.0316 µM
[26] = second compound 1 µM, first compound 0.1 µM
[27] = second compound 1 µM, first compound 0.316 µM
[28] = second compound 1 µM, first compound 1 µM
[29] = second compound 1 µM, first compound 3.16 µM
[30] = second compound 1 µM, first compound 10 µM
[31] = second compound 3.16 µM, first compound 0.0316 µM
[32] = second compound 3.16 µM, first compound 0.1 µM
[33] = second compound 3.16 µM, first compound 0.316 µM
[34] = second compound 3.16 µM, first compound 1 µM
[35] = second compound 3.16 µM, first compound 3.16 µM
[36] = second compound 3.16 µM, first compound 10 µM
[37] = second compound 10 µM, first compound 0.0316 µM
[38] = second compound 10 µM, first compound 0.1 µM
[39] = second compound 10 µM, first compound 0.316 µM
[40] = second compound 10 µM, first compound 1 µM
[41] = second compound 10 µM, first compound 3.16 µM
[42] = second compound 10 µM, first compound 10 µM

CCCS(=O)(=O)Nc1ccc(F)c(C(=O)c2c[nH]c3ncc(-c4ccc(Cl)cc4)cc23)c1F + Cc1[nH]c2ccc(F)cc2c1-c1nc2c3cccnc3c3ncccc3c2[nH]1
9.08 µM: IC50 [4]
8.19 µM: IC50 [5]
inactive: viability, T/C [7] 107% | viability, T/C [8] 97.7% | viability, T/C [9] 109% | viability, T/C [10] 101% | viability, T/C [11] 74.7% | viability, T/C [12] 53.3% | viability, T/C [13] 102% | viability, T/C [14] 105% | viability, T/C [15] 102% | viability, T/C [16] 99.8% | viability, T/C [17] 82.6% | viability, T/C [18] 54.9% | viability, T/C [19] 110% | viability, T/C [20] 104% | viability, T/C [21] 105% | viability, T/C [22] 102% | viability, T/C [23] 78.9% | viability, T/C [24] 51.2% | viability, T/C [25] 103% | viability, T/C [26] 107% | viability, T/C [27] 105% | viability, T/C [28] 105% | viability, T/C [29] 79.6% | viability, T/C [30] 47.3% | viability, T/C [31] 98.3% | viability, T/C [32] 92.7% | viability, T/C [33] 102% | viability, T/C [34] 109% | viability, T/C [35] 71.3% | viability, T/C [36] 45.6% | viability, T/C [37] 98.1% | viability, T/C [38] 104% | viability, T/C [39] 102% | viability, T/C [40] 105% | viability, T/C [41] 74.6% | viability, T/C [42] 40.4%
7.25 µM: IC50 [6]
> 10 µM: IC50 [1] | IC50 [2] | IC50 [3]

CC[C@@]1(O)C(=O)OCc2c1cc1n(c2=O)Cc2cc3c(CN(C)C)c(O)ccc3nc2-1
inactive: viability, T/C (compound 0.000999 µM) 105% (2×) and 108% | viability, T/C (compound 0.00316 µM) 94.7% and 93.8% and 94.1% | viability, T/C (compound 0.00999 µM) 98% and 95.1% and 105% | viability, T/C (compound 0.0316 µM) 84.5% and 87.9% and 69.8% | viability, T/C (compound 0.0999 µM) 43.6% and 53.2% and 39.2% | viability, T/C (compound 0.316 µM) 49.1% and 51.8% and 48.5%
0.0895 µM and > 0.316 µM and 0.076 µM: IC50 (curve of compound)

CC(C)(O)C1CCC(Nc2ccc3ncc(-c4cccc(C(F)(F)F)c4)n3n2)CC1 (stereo not drawn)
> 10 µM and 1.17 µM: IC50 (curve of compound)
inactive: viability, T/C (compound 0.0316 µM) 98.3% and 102% and 86% | viability, T/C (compound 0.1 µM) 86.1% and 89.2% and 65.1% | viability, T/C (compound 0.316 µM) 76.1% and 82.5% and 72.4% | viability, T/C (compound 1 µM) 63.5% and 63.8% and 49.3% | viability, T/C (compound 3.16 µM) 47.9% and 49% and 37.8% | viability, T/C (compound 10 µM) 61.8% and 58% and 41.8%

COc1ncnc(C2CC2)c1-c1ncc2cnn(Cc3ccc(-c4nc(C(F)(F)F)cn4C(C)C)cc3)c2n1 + Cc1[nH]c2ccc(F)cc2c1-c1nc2c3cccnc3c3ncccc3c2[nH]1
inactive: viability, T/C [7] 106% | viability, T/C [8] 87.2% | viability, T/C [9] 92.7% | viability, T/C [10] 92.4% | viability, T/C [11] 91.6% | viability, T/C [12] 95.4% | viability, T/C [13] 103% | viability, T/C [14] 104% | viability, T/C [15] 87.2% | viability, T/C [16] 90.1% | viability, T/C [17] 91.2% | viability, T/C [18] 94.3% | viability, T/C [19] 97.4% | viability, T/C [20] 97.6% | viability, T/C [21] 68.9% | viability, T/C [22] 93% | viability, T/C [23] 97.8% | viability, T/C [24] 94.6% | viability, T/C [25] 98.1% | viability, T/C [26] 98.1% | viability, T/C [27] 92.3% | viability, T/C [28] 92.2% | viability, T/C [29] 90.1% | viability, T/C [30] 95.3% | viability, T/C [31] 97.4% | viability, T/C [32] 89.6% | viability, T/C [33] 86.1% | viability, T/C [34] 82.3% | viability, T/C [35] 89.4% | viability, T/C [36] 89.2% | viability, T/C [37] 91.8% | viability, T/C [38] 91.4% | viability, T/C [39] 85.4% | viability, T/C [40] 83.7% | viability, T/C [41] 90.8% | viability, T/C [42] 92.5%
> 10 µM: IC50 [1] | IC50 [2] | IC50 [3] | IC50 [4] | IC50 [5] | IC50 [6]
